Assay results published in US11759492B2, “Extract from a plant of the genus Boswellia and related products and uses” (Alpinia Laudanum Institute of Phytopharmaceutical Sciences …, priority 2014, dated 2023).

System: HepG2 cells
Assay: Determination of reactive oxygen species (ROS) in HepG2 indicator cells (ROS-Glo system)
Assay type: cell-based
Details: two hours or four hours of incubation, FIG. 4 and 5
Experimental: The potential of Boswellia extract BSR037: LN00125 (Example 12) and Boswellia extract BSR037: LN00126 (Example 15) of inducing reactive oxygen species (ROS) was tested. The effects were compared with ROS generation upon exposure to positive control Menadione as well as two solvent ethanol. To this end, HepG2 cells were incubated in presence of different concentrations of the respective Boswellia extract for two hours. ROS levels were determined by using the ROS-Glo system (Promega). HepG2 cells were seeded in […] flat-bottom black microtiter plates at a density of 10000 cells per well, 100 μl per well, and allowed to attach to the plate for 24 hours. Test item dilutions were prepared in separate plates. The maximum concentration was a 1:100 dilution in media (final solvent concentration: 1% ethanol) followed by a 1:3 serial dilution in media containing 1% ethanol. […] Cells exposed to media containing 1% ethanol served as untreated control. After overnight adherence, media was completely removed from cells by vacuum aspiration and 80 μl of compound dilution, positive and negative controls were added to the cells. Test items were tested in two replicates per concentration (A and B). In independent experiments, ROS levels were measured after two hours of incubation (see FIG. 4A-D) or after four hours of incubation (see FIG. 5A-D), respectively).

In the case of `CC1=CC(=O)c2ccccc2C1=O` [Menadione], the ROS induction is reported as “ROS induction was detected”.
